In paper PMC9032561, “Simultaneous Inhibitory Effects of All-Trans Astaxanthin on Acetylcholinesterase and Oxidative Stress” (Marine Drugs, 2022):
pIC50: −log10 of the molar value.

Target: T1, acetylcholinesterase (Electrophorus electricus, UniProt O42275)
T1 construct: gene ache
Experiment: Ellman assay with Lineweaver-Burk kinetics; supported by fluorescence quenching and circular dichroism
Assay type: biochemical

T1 sequence (O42275 24-633): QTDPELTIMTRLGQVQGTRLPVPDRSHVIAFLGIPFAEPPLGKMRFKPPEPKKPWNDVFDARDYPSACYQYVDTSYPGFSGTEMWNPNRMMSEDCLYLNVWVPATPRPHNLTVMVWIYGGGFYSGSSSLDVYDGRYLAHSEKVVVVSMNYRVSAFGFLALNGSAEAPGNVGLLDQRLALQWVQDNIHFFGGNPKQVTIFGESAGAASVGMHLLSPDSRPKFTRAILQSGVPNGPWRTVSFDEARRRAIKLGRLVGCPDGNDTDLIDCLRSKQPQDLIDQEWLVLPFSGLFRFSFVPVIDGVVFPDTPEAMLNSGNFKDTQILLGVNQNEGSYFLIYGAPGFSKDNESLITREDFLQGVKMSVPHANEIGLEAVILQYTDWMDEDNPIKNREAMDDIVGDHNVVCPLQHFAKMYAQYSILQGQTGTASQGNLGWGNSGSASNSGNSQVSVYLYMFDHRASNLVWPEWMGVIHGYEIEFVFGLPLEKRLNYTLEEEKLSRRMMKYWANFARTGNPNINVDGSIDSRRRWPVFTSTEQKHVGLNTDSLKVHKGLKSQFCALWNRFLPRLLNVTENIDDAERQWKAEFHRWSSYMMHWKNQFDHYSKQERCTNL

Structure (SMILES): CC1=C(/C=C/C(C)=C/C=C/C(C)=C/C=C/C=C(C)/C=C/C=C(C)/C=C/C2=C(C)C(=O)[C@@H](O)CC2(C)C)C(C)(C)C[C@H](O)C1=O [all-trans astaxanthin]
- pIC50: 5.06
